Data: patent US9920010B2, “CXCR7 receptor modulators” (IDORSIA PHARMACEUTICALS LTD, priority 2013, dated 2018)

These molecules were tested against T1, CXCR7 (Homo sapiens, UniProt P25106) (assay: PathHunter CHO-K1 CXCR7 b-arrestin recruitment assay (CXCR7 agonistic activity)). Settings: PathHunter CHO-K1 CXCR7 b-arrestin cell line.
T1 construct: host or cells: CHO-K1 (PathHunter CHO-K1 CXCR7 b-arrestin cell line, stably transfected)
Format: cell-based
Outline: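 Stable CHO-K1 line with C-terminally ProLink-tagged CXCR7 and β-arrestin 2–EA fusion; β-arrestin recruitment restores β-gal activity, read by chemiluminescence after 1 h RT detection. Cells seeded 24 h, starved in OPTIMEM 3–4 h, exposed to compounds 90 min at 37 °C in HBSS/HEPES/BSA. Geometric-mean EC50 from repeated measurements.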

T1 sequence (P25106 whole entry): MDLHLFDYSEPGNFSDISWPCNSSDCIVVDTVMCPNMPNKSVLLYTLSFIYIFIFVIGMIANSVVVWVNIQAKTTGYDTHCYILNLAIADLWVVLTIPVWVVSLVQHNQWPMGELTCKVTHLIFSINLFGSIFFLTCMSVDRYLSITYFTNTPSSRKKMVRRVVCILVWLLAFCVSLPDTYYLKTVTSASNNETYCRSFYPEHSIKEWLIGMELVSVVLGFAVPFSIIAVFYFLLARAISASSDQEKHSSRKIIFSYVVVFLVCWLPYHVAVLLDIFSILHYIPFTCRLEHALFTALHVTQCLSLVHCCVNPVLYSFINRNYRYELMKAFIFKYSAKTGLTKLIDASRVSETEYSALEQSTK
T1 sequence (P32121 whole entry partner): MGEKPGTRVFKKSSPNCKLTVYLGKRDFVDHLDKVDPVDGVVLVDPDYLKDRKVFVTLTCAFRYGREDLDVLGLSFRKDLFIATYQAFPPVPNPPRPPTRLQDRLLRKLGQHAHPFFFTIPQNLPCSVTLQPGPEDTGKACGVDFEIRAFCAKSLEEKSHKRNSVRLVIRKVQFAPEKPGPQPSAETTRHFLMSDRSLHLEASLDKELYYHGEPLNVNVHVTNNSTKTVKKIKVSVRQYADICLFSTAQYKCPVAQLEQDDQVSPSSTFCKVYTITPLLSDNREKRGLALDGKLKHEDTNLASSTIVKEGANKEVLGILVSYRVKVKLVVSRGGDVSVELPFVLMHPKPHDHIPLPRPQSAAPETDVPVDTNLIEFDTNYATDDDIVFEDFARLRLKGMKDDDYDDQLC

| EC50 | Structure (SMILES) |
| --- | --- |
| 5 nM | CN(C)CCN(Cc1ccccc1C(F)(F)F)C(=O)CNc1cccc2c1CCN(CC1CC1)C2=O [Example 315, 2-(2-Cyclopropylmethyl-1-oxo-1,2,3,4-tetrahydro-isoquinolin-5-ylamino)-N-(2-dimethylamino-ethyl)-N-(2-trifluoromethyl-benzyl)-acetamide] |
| 0.9 nM | CN(C)CCN(Cc1ccccc1Cl)C(=O)CNc1cccc2c1C(C)(C)CN(CC1CC1)C2 [Example 577, N-(2-Chloro-benzyl)-2-(2-cyclopropylmethyl-4,4-dimethyl-1,2,3,4-tetrahydro-isoquinolin-5-ylamino)-N-(2-dimethylamino-ethyl)-acetamide] |
| 395 nM | CCN1CCc2cccc(NCC(=O)N(CCN(C)C)Cc3cnc(N(C)C)nc3)c2C1 [compound 534] |
| 74 nM | CCN1CCc2cccc(NCC(=O)N(CCCN(C)C)Cc3ccccc3)c2C1 [compound 507] |
| 30 nM | CCN1CCc2cccc(NCC(=O)N(CCN(C)C)Cc3cccc(C(F)(F)F)n3)c2C1 [compound 532, N-(2-Dimethylamino-ethyl)-2-(2-ethyl-1,2,3,4-tetrahydro-isoquinolin-8-ylamino)-N-(6-trifluoromethyl-pyridin-2-ylmethyl)-acetamide] |
| 3 nM | CC(C)N(CCN(Cc1ccccc1C(F)(F)F)C(=O)CNc1cccc2c1CCN(CC1CC1)C2)C(C)C [Example 219, 2-(2-Cyclopropylmethyl-1,2,3,4-tetrahydro-isoquinolin-5-ylamino)-N-(2-diisopropylamino-ethyl)-N-(2-trifluoromethyl-benzyl)-acetamide] |
| 2 nM | CN(C)CCN(Cc1ccccc1Cl)C(=O)/C=C/c1cccc2c1CCN(CC1CC1)C2 [compound 146, (E)-N-(2-Chloro-benzyl)-3-(2-cyclopropylmethyl-1,2,3,4-tetrahydro-isoquinolin-5-yl)-N-(2-dimethylamino-ethyl)-acrylamide] |
| 31 nM | CCN1CCc2cccc(NCC(=O)N(CCN(C)C)Cc3ccccc3Cl)c2C1 [compound 500, N-(2-Chloro-benzyl)-N-(2-dimethylamino-ethyl)-2-(2-ethyl-1,2,3,4-tetrahydro-isoquinolin-8-ylamino)-acetamide] |
| 37 nM | CN(C)CCN(Cc1ccccc1C(F)(F)F)C(=O)CNc1cccc2c1CCN(CCF)C2 [Example 286, N-(2-Dimethylamino-ethyl)-2-[2-(2-fluoro-ethyl)-1,2,3,4-tetrahydro-isoquinolin-5-ylamino]-N-(2-trifluoromethyl-benzyl)-acetamide] |
| 10 nM | CC(C)C(C)N1CCc2c(cccc2NCC(=O)N(CCN(C)C)Cc2ccccc2C(F)(F)F)C1 (racemic) [Example 355, rac-N-(2-Dimethylamino-ethyl)-2-[2-(1,2-dimethyl-propyl)-1,2,3,4-tetrahydro-isoquinolin-5-ylamino]-N-(2-trifluoromethyl-benzyl)-acetamide] |

Continued, molecule first:

| Structure (SMILES) | EC50 |
| --- | --- |
| COCCN1CCc2c(cccc2NCC(=O)N(Cc2ncccc2Cl)CC(C)(C)O)C1 [Example 307, N-(3-Chloro-pyridin-2-ylmethyl)-N-(2-hydroxy-2-methyl-propyl)-2-[2-(2-methoxy-ethyl)-1,2,3,4-tetrahydro-isoquinolin-5-ylamino]-acetamide] | 423 nM |
| CC(C)(O)CN(Cc1ccccc1C(F)(F)F)C(=O)CNc1cccc2c1CCN(CC1CC1)C2 [Example 241, 2-(2-Cyclopropylmethyl-1,2,3,4-tetrahydro-isoquinolin-5-ylamino)-N-(2-hydroxy-2-methyl-propyl)-N-(2-trifluoromethyl-benzyl)-acetamide] | 8 nM |
| COCCN1CCc2c(cccc2NCC(=O)N(CCN2CCC(F)(F)CC2)Cc2ncccc2Cl)C1 [Example 305, N-(3-Chloro-pyridin-2-ylmethyl)-N-[2-(4,4-difluoro-piperidin-1-yl)-ethyl]-2-[2-(2-methoxy-ethyl)-1,2,3,4-tetrahydro-isoquinolin-5-ylamino]-acetamide] | 230 nM |
| CN1CCC(N(Cc2ccccc2C(F)(F)F)C(=O)CCc2cccc3c2CCN(CC2CC2)C3)CC1 [compound 160, 3-(2-Cyclopropylmethyl-1,2,3,4-tetrahydro-isoquinolin-5-yl)-N-(1-methyl-piperidin-4-yl)-N-(2-trifluoromethyl-benzyl)-propionamide] | 15 nM |
| CN(C)CCN(Cc1ccccc1C(F)(F)F)C(=O)C1(Nc2cccc3c2CCN(CC2CC2)C3)CC1 [Example 292, 1-(2-Cyclopropylmethyl-1,2,3,4-tetrahydro-isoquinolin-5-ylamino)-cyclopropanecarboxylic acid (2-dimethylamino-ethyl)-(2-trifluoromethyl-benzyl)-amide] | 103 nM |
| CC(C)(C)OC(=O)N1CCN(CCN(Cc2ccccc2C(F)(F)F)C(=O)CNc2cccc3c2CCN(CC2CC2)C3)CC1 [Example 216, 4-{2-[[2-(2-Cyclopropylmethyl-1,2,3,4-tetrahydro-isoquinolin-5-ylamino)-acetyl]-(2-trifluoromethyl-benzyl)-amino]-ethyl}-piperazine-1-carboxylic acid tert-butyl ester] | 34 nM |
| CC(C)(C)OC(=O)N1CCC(CN(Cc2ccccc2C(F)(F)F)C(=O)CNc2cccc3c2CCN(CC2CC2)C3)C1 (centres unmarked) [Example 253, 3-{[[2-(2-Cyclopropylmethyl-1,2,3,4-tetrahydro-isoquinolin-5-ylamino)-acetyl]-(2-trifluoromethyl-benzyl)-amino]-methyl}-pyrrolidine-1-carboxylic acid tert-butyl ester] | 42 nM |
| CN(C)CCN(Cc1ccccc1)C(=O)COc1cccc2c1CCN(CC1CC1)C2 [compound 166, N-Benzyl-2-(2-cyclopropylmethyl-1,2,3,4-tetrahydro-isoquinolin-5-yloxy)-N-(2-dimethylamino-ethyl)-acetamide] | 6 nM |
| COCCN1CCc2c(/C=C/C(=O)N(Cc3ccccc3C(F)(F)F)CC3(C)COC3)cccc2C1 [Example 324, (E)-3-[2-(2-Methoxy-ethyl)-1,2,3,4-tetrahydro-isoquinolin-5-yl]-N-(3-methyl-oxetan-3-ylmethyl)-N-(2-trifluoromethyl-benzyl)-acrylamide] | 243 nM |
| COc1ccc(CCN(CCN(C)C)C(=O)CNc2cccc3c2CCN(CC2CC2)C3)cc1OC [Example 59, 2-(2-Cyclopropylmethyl-1,2,3,4-tetrahydro-isoquinolin-5-ylamino)-N-[2-(3,4-dimethoxy-phenyl)-ethyl]-N-(2-dimethylamino-ethyl)-acetamide] | 147 nM |
| CC(C)CCN(Cc1ccccc1)C(=O)CNc1cccc2c1CCN(C(=O)OC(C)(C)C)C2 [Example 9, 5-({[Benzyl-(3-methyl-butyl)-carbamoyl]-methyl}-amino)-3,4-dihydro-1H-isoquinoline-2-carboxylic acid tert-butyl ester] | 451 nM |
| CN(C)CCN(Cc1ccc(Nc2ccc(F)cc2)cn1)C(=O)CNc1cccc2c1CCN(CC1CC1)C2 [Example 285, 2-(2-Cyclopropylmethyl-1,2,3,4-tetrahydro-isoquinolin-5-ylamino)-N-(2-dimethylamino-ethyl)-N-[5-(4-fluoro-phenylamino)-pyridin-2-ylmethyl]-acetamide] | 408 nM |
| O=C(CNc1cccc2c1CCN(CC1CC1)C2)N(CCN1CCCC1)Cc1ccccc1C(F)(F)F [Example 62, 2-(2-Cyclopropylmethyl-1,2,3,4-tetrahydro-isoquinolin-5-ylamino)-N-(2-pyrrolidin-1-yl-ethyl)-N-(2-trifluoromethyl-benzyl)-acetamide] | 1 nM |
